ChEMBL document CHEMBL1201862, “PubChem BioAssay data set” (2004)
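The compound was tested at five concentrations on cells cultured in 96-well plates, with a 48-hour exposure period. At the GI50, growth is halved.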 Calls of active or inactive are those of the source. Cut-off read from the data, not from the text of the source: active = GI50 up to about 1.1 µM and inactive = higher.

Columns and labels:
Assay in all cases: NCI-60 cell line screen, 48 h
OVCAR-4 = tested on: OVCAR-4
SNB-19 = tested on: SNB-19
MOLT-4 = tested on: MOLT-4
SK-MEL-2 = tested on: SK-MEL-2
NCI-H226 = tested on: NCI-H226
SK-OV-3 = tested on: SK-OV-3
LXFL 529 = tested on: LXFL 529
RXF 393 = tested on: RXF 393
HT-29 = tested on: HT-29
ACHN = tested on: ACHN
LOX IMVI = tested on: LOX IMVI
XF498 = tested on: XF498
NCI-H460 = tested on: NCI-H460
IGROV-1 = tested on: IGROV-1
COLO 205 = tested on: COLO 205
OVCAR-8 = tested on: OVCAR-8
A549 = tested on: A549
HOP-18 = tested on: HOP-18
KM12 = tested on: KM12
RPMI-8226 = tested on: RPMI-8226
SNB-75 = tested on: SNB-75
UACC-62 = tested on: UACC-62
DMS-114 = tested on: DMS-114
SF-295 = tested on: SF-295
DLD-1 = tested on: DLD-1
KM-20L2 = tested on: KM-20L2
UACC-257 = tested on: UACC-257
SR = tested on: SR
UO-31 = tested on: UO-31
K562 = tested on: K562
M19-MEL = tested on: M19-MEL
NCI-H522 = tested on: NCI-H522
HOP-62 = tested on: HOP-62
TK-10 = tested on: TK-10
RXF 631 = tested on: RXF 631
HCC 2998 = tested on: HCC 2998
CAKI-1 = tested on: CAKI-1
SF-539 = tested on: SF-539
SN12C = tested on: SN12C
CCRF-CEM = tested on: CCRF-CEM
OVCAR-3 = tested on: OVCAR-3
HL-60 = tested on: HL-60
OVCAR-5 = tested on: OVCAR-5
786-0 = tested on: 786-0
U-251 = tested on: U-251
SK-MEL-28 = tested on: SK-MEL-28
DMS-273 = tested on: DMS-273
HCT-116 = tested on: HCT-116
EKVX = tested on: EKVX
SK-MEL-5 = tested on: SK-MEL-5
SF-268 = tested on: SF-268
M14 = tested on: M14
SNB-78 = tested on: SNB-78
SW-620 = tested on: SW-620
HOP-92 = tested on: HOP-92
NCI-H23 = tested on: NCI-H23
A498 = tested on: A498
HCT-15 = tested on: HCT-15
Malme-3M = tested on: Malme-3M

In the case of `S=C1OC2CCCC[C@H]2O1` (some centres not stated), the GI50 (OVCAR-4) is reported as > 100 µM (inactive), the GI50 (SNB-19) is reported as > 100 µM (inactive) and the GI50 (MOLT-4) is reported as > 100 µM (inactive). The GI50 (SK-MEL-2) was > 100 µM (inactive), the GI50 (NCI-H226) was > 100 µM (inactive) and the GI50 (SK-OV-3) was > 100 µM (inactive). For the same compound, the GI50 (LXFL 529) was > 100 µM (inactive), the GI50 (RXF 393) was > 100 µM (inactive) and the GI50 (HT-29) was > 100 µM (inactive). The GI50 (ACHN) was > 100 µM (inactive), the GI50 (LOX IMVI) was > 100 µM (inactive) and the GI50 (XF498) was > 100 µM (inactive). For the same compound, the GI50 (NCI-H460) was > 100 µM (inactive), the GI50 (IGROV-1) was > 100 µM (inactive) and the GI50 (COLO 205) was > 100 µM (inactive). For the same compound, the GI50 (OVCAR-8) was > 100 µM (inactive), the GI50 (A549) was > 100 µM (inactive) and the GI50 (HOP-18) was > 100 µM (inactive). For the same compound, the GI50 (KM12) was > 100 µM (inactive), the GI50 (RPMI-8226) was > 100 µM (inactive) and the GI50 (SNB-75) was > 100 µM (inactive). For the same compound, the GI50 (UACC-62) was > 100 µM (inactive), the GI50 (DMS-114) was > 100 µM (inactive) and the GI50 (SF-295) was > 100 µM (inactive). The GI50 (DLD-1) was > 100 µM (inactive), the GI50 (KM-20L2) was > 100 µM (inactive) and the GI50 (UACC-257) was > 100 µM (inactive). The GI50 (SR) was > 100 µM (inactive), the GI50 (UO-31) was > 100 µM (inactive) and the GI50 (K562) was > 100 µM (inactive). For the same compound, the GI50 (M19-MEL) was > 100 µM (inactive), the GI50 (NCI-H522) was > 100 µM (inactive) and the GI50 (HOP-62) was > 100 µM (inactive). For the same compound, the GI50 (TK-10) was > 100 µM (inactive), the GI50 (RXF 631) was > 100 µM (inactive) and the GI50 (HCC 2998) was > 100 µM (inactive). The GI50 (CAKI-1) was > 100 µM (inactive), the GI50 (SF-539) was > 100 µM (inactive) and the GI50 (SN12C) was > 100 µM (inactive). For the same compound, the GI50 (CCRF-CEM) was > 100 µM (inactive), the GI50 (OVCAR-3) was > 100 µM (inactive) and the GI50 (HL-60) was > 100 µM (inactive). For the same compound, the GI50 (OVCAR-5) was > 100 µM (inactive), the GI50 (786-0) was > 100 µM (inactive) and the GI50 (U-251) was > 100 µM (inactive). For the same compound, the GI50 (SK-MEL-28) was > 100 µM (inactive), the GI50 (DMS-273) was > 100 µM (inactive) and the GI50 (HCT-116) was > 100 µM (inactive). The GI50 (EKVX) was > 100 µM (inactive), the GI50 (SK-MEL-5) was > 100 µM (inactive) and the GI50 (SF-268) was > 100 µM (inactive). The GI50 (M14) was > 100 µM (inactive), the GI50 (SNB-78) was > 100 µM (inactive) and the GI50 (SW-620) was > 100 µM (inactive). For the same compound, the GI50 (HOP-92) was > 100 µM (inactive) and the GI50 (NCI-H23) was > 100 µM (inactive).

`CCN(CC)CCC(=O)/C=C/c1ccc(C)cc1` was tested, and the GI50 (OVCAR-4) was 18.4 µM (inactive), the GI50 (SNB-19) was 19.3 µM (inactive) and the GI50 (MOLT-4) was 11.7 µM (inactive). For the same compound, the GI50 (NCI-H226) was 17.1 µM (inactive), the GI50 (SK-OV-3) was 20.7 µM (inactive) and the GI50 (A498) was 11.2 µM (inactive). For the same compound, the GI50 (LXFL 529) was 7.67 µM (inactive), the GI50 (RXF 393) was 15.3 µM (inactive) and the GI50 (HT-29) was 15.1 µM (inactive). The GI50 (ACHN) was 14.4 µM (inactive), the GI50 (LOX IMVI) was 4.53 µM (inactive) and the GI50 (XF498) was 12.4 µM (inactive). The GI50 (NCI-H460) was 15.7 µM (inactive), the GI50 (IGROV-1) was 15.3 µM (inactive) and the GI50 (COLO 205) was 4.72 µM (inactive). The GI50 (OVCAR-8) was 13.2 µM (inactive), the GI50 (A549) was 18.8 µM (inactive) and the GI50 (HOP-18) was 17.6 µM (inactive). The GI50 (KM12) was 3.18 µM (inactive), the GI50 (RPMI-8226) was 3.99 µM (inactive) and the GI50 (SNB-75) was 15.6 µM (inactive). For the same compound, the GI50 (UACC-62) was 16.6 µM (inactive), the GI50 (DMS-114) was 11.3 µM (inactive) and the GI50 (SF-295) was 18.1 µM (inactive). The GI50 (DLD-1) was 6.17 µM (inactive), the GI50 (KM-20L2) was 15.6 µM (inactive) and the GI50 (UACC-257) was 13.9 µM (inactive). For the same compound, the GI50 (SR) was 6.78 µM (inactive), the GI50 (UO-31) was 16.2 µM (inactive) and the GI50 (K562) was 19.5 µM (inactive). The GI50 (M19-MEL) was 12.8 µM (inactive), the GI50 (HOP-62) was 25.7 µM (inactive) and the GI50 (TK-10) was 6.85 µM (inactive). The GI50 (RXF 631) was 16.4 µM (inactive), the GI50 (HCC 2998) was 18.6 µM (inactive) and the GI50 (CAKI-1) was 1.83 µM (inactive). For the same compound, the GI50 (SF-539) was 6.32 µM (inactive), the GI50 (SN12C) was 12 µM (inactive) and the GI50 (CCRF-CEM) was 10.1 µM (inactive). The GI50 (HCT-15) was 12.5 µM, the GI50 (OVCAR-3) was 16.7 µM (inactive) and the GI50 (HL-60) was 10.8 µM (inactive). The GI50 (OVCAR-5) was 18.6 µM (inactive), the GI50 (786-0) was 11.9 µM (inactive) and the GI50 (U-251) was 10.2 µM (inactive). For the same compound, the GI50 (SK-MEL-28) was 14.8 µM (inactive), the GI50 (Malme-3M) was 19.3 µM (inactive) and the GI50 (DMS-273) was 11.2 µM (inactive). For the same compound, the GI50 (HCT-116) was 13.4 µM (inactive), the GI50 (EKVX) was 17.1 µM (inactive) and the GI50 (SK-MEL-5) was 16.6 µM (inactive). The GI50 (SF-268) was 15.8 µM (inactive), the GI50 (M14) was 13.7 µM (inactive) and the GI50 (SNB-78) was 23.5 µM (inactive). For the same compound, the GI50 (SW-620) was 4.69 µM (inactive), the GI50 (HOP-92) was 19.2 µM (inactive) and the GI50 (NCI-H23) was 17.1 µM (inactive).

For `CN(C)CC(=O)N1CCc2c([nH]c3ccccc23)C1c1cccnc1` (configuration not stated), the GI50 (OVCAR-4) was > 100 µM (inactive), the GI50 (SNB-19) was > 100 µM (inactive) and the GI50 (MOLT-4) was > 100 µM (inactive). For the same compound, the GI50 (SK-OV-3) was > 100 µM (inactive), the GI50 (A498) was > 100 µM (inactive) and the GI50 (LXFL 529) was > 100 µM (inactive). For the same compound, the GI50 (HT-29) was > 100 µM (inactive), the GI50 (ACHN) was > 100 µM (inactive) and the GI50 (LOX IMVI) was > 100 µM (inactive). For the same compound, the GI50 (XF498) was > 100 µM (inactive), the GI50 (NCI-H460) was > 100 µM (inactive) and the GI50 (IGROV-1) was > 100 µM (inactive). For the same compound, the GI50 (OVCAR-8) was > 100 µM (inactive), the GI50 (A549) was > 100 µM (inactive) and the GI50 (HOP-18) was > 100 µM (inactive). For the same compound, the GI50 (KM12) was > 100 µM (inactive), the GI50 (RPMI-8226) was > 100 µM (inactive) and the GI50 (SNB-75) was 65 µM (inactive). For the same compound, the GI50 (UACC-62) was > 100 µM (inactive), the GI50 (DMS-114) was > 100 µM (inactive) and the GI50 (SF-295) was 0.0498 µM (active). The GI50 (DLD-1) was > 100 µM (inactive), the GI50 (KM-20L2) was > 100 µM (inactive) and the GI50 (UACC-257) was > 100 µM (inactive). The GI50 (SR) was > 100 µM (inactive), the GI50 (UO-31) was 22.5 µM (inactive) and the GI50 (K562) was > 100 µM (inactive). The GI50 (M19-MEL) was > 100 µM (inactive), the GI50 (NCI-H522) was > 100 µM (inactive) and the GI50 (HOP-62) was > 100 µM (inactive). For the same compound, the GI50 (TK-10) was > 100 µM (inactive), the GI50 (RXF 631) was > 100 µM (inactive) and the GI50 (HCC 2998) was > 100 µM (inactive). The GI50 (CAKI-1) was > 100 µM (inactive), the GI50 (SF-539) was > 100 µM (inactive) and the GI50 (SN12C) was > 100 µM (inactive). The GI50 (CCRF-CEM) was > 100 µM (inactive), the GI50 (HCT-15) was over 100 µM and the GI50 (OVCAR-3) was > 100 µM (inactive). The GI50 (HL-60) was > 100 µM (inactive), the GI50 (OVCAR-5) was > 100 µM (inactive) and the GI50 (786-0) was > 100 µM (inactive). The GI50 (U-251) was > 100 µM (inactive), the GI50 (SK-MEL-28) was > 100 µM (inactive) and the GI50 (DMS-273) was 0.0187 µM (active). For the same compound, the GI50 (HCT-116) was > 100 µM (inactive), the GI50 (EKVX) was > 100 µM (inactive) and the GI50 (SK-MEL-5) was > 100 µM (inactive). For the same compound, the GI50 (SF-268) was > 100 µM (inactive), the GI50 (M14) was > 100 µM (inactive) and the GI50 (SNB-78) was > 100 µM (inactive). The GI50 (SW-620) was > 100 µM (inactive), the GI50 (HOP-92) was 26.9 µM (inactive) and the GI50 (NCI-H23) was > 100 µM (inactive).
